We go through 91 molecules from the RepoRT retention time repository (doi:10.1021/acs.analchem.7b00925).

Molecules are shown by their SMILES.

The data set is described as follows: HILIC, Merck SeQuant ZIC-HILIC, 100 × 2.1 mm, 3.5 µm, 25 °C, 0.3 mL/min, estimated dead time 0.73 min; A: water + 0.1% formic acid, pH 3; B: acetonitrile + 0.1% formic acid, pH 3; gradient (min/%B) 0/95 1.5/95 13.5/40 15.5/40 29.7/25 33.5/25 34.5/95 41.5/95. To be noted: stereoisomer not certain.

Take `OCC1OC(O)C(O)C1O` (stereo unspecified) [Ribose]: the LC retention time was 5 min. Under `NCCS(=O)(=O)O` [Taurine] stands 7.44 min; under `CC(C)(C)NCC(O)c1ccc(O)c(CO)c1` (stereo unspecified) [Salbutamol], 6.57 min. With `CC(NC(=O)C(N)Cc1ccccc1)C(=O)NC(CO)C(=O)O` (stereo not drawn) [Phe-Ala-Ser] the figure was 7.49 min; with `O=S(=O)(O)CCN1CCN(CCO)CC1` [HEPES], 10.7 min; with `O=C(O)C1CC(O)CN1C(=O)C1CCCN1` (stereo unspecified) [Proline-hydroxyproline], 8.4 min. Take `O=C(O)c1ccncc1` [Isonicotinic acid]: the LC retention time is 2.25 min. Consider `CSCC1OC(n2cnc3c(N)ncnc32)C(O)C1O` (stereo unspecified) [Methylthioadenosine], for which the LC retention time was 4.81 min. As to `NCC(=O)CCC(=O)O` [5-aminolevulinic acid], the LC retention time was 8.57 min. Turning to `OCC1OC(O)C(O)C(O)C1O` (stereo unspecified) [Glucose], the LC retention time was 6.86 min. Consider `NC(CSS(=O)(=O)O)C(=O)O` (stereo unspecified) [Cysteine-S-sulfate], for which the LC retention time was 7.64 min. Under `NC(=O)NCCCC(N)C(=O)O` (stereo unspecified) [Citrulline] stands 8.89 min.

`O=C(O)c1ccccc1C(=O)O` [Phthalic acid]: the LC retention time was 2.12 min. With `CC(=O)NC(CCCN)C(=O)O` (stereo unspecified) [N-Acetyl-ornithine] the figure was 8.65 min; with `CN(CC(=O)O)C(N)=NP(=O)(O)O` [Phosphocreatine], 7.7 min; with `CC(C)C(C(=O)O)[N+](C)(C)C` (stereo unspecified) [Valine betaine], 5.99 min. On to `O=c1[nH]c(=O)c2ncn(C3OC(CO)C(O)C3O)c2[nH]1` (stereo unspecified) [Xanthosine], for which the LC retention time was 5.36 min.

Turning to `NC(Cc1c[nH]c2ccc(O)cc12)C(=O)O` (stereo unspecified) [5-hydroxytryptophan], the LC retention time is 7.58 min. Consider `COC(=O)c1ccccn1` [Methylpicolinate], for which the LC retention time was 1.06 min.

For the molecule `CC(C)(CO)C(O)C(=O)NCCC(=O)O` (stereo unspecified) [Pantothenic acid], the LC retention time was 2.31 min.

As to `O=C(O)C=Cc1cnc[nH]1` [cis-urocanic acid], the LC retention time was 5 min. With `O=C(C=CC=Cc1ccc2c(c1)OCO2)N1CCCCC1` [Piperine] the figure was 0.94 min; with `Nc1ccc(C(=O)O)cc1` [p-Aminobenzoic acid], 1.53 min; with `C[N+](C)(C)CCOP(=O)(O)OP(=O)([O-])OCC1OC(n2ccc(N)nc2=O)C(O)C1O` (stereo unspecified) [Citicholine], 10.6 min. As to `CC(=O)OCC[N+](C)(C)C` [Acetylcholine], the LC retention time is 3.46 min. `Nc1ccccc1O` [2-Aminophenol]: the LC retention time is 6 min.

With `Nc1cccc(C(=O)O)c1` [m-Aminobenzoic acid], the LC retention time was 2.09 min. Turning to `CC(=O)NC1C(O)CC(O)(C(=O)O)OC1C(O)C(O)CO` (stereo unspecified) [N-Acetylneuraminic acid], the LC retention time is 7.06 min. With `OCCOCCOCCOCCOCCOCCO` [Hexaethylene glycol] the figure was 1.69 min; with `NCCc1c[nH]c2ccc(O)cc12` [Serotonin], 7.73 min; with `CC(=O)NCCc1c[nH]c2ccc(O)cc12` [N-acetyl-5-hydroxytryptamine], 2.03 min. Regarding `COC(=O)c1nccnc1N` [Methyl 3-aminopyrazine-2-carboxylic acid], the LC retention time was 1.05 min. `CCNC(=O)CC[C@H](N)C(=O)O` [L-Theanine]: the LC retention time is 7.58 min.

`Cn1cnc2nc(N)[nH]c(=O)c21` [7-methylguanine]: the LC retention time is 6.62 min.

On to `NC(N)=NCC(=O)O` [Glycocyamine], for which the LC retention time was 8.52 min. Take `CCC(NC(=O)CCC(N)C(=O)O)C(=O)NCC(=O)O` (stereo unspecified) [Ophthalmic acid]: the LC retention time was 7.85 min. With `N[C@H]1C(O)O[C@H](COP(=O)(O)O)[C@@H](O)[C@@H]1O` (stereo partly drawn) [D-glucosamine-6-phosphate] the figure was 10 min. Under `CNCC(=O)O` [Sarcosine] stands 7.67 min; under `CC(NC(=O)C(Cc1ccccc1)NC(=O)C(N)CC(=O)O)C(=O)O` (stereo not drawn) [Asp-Phe-Ala], 6.71 min. On to `Nc1nc2c(ncn2C2OC(COP(=O)(O)O)C(O)C2O)c(=O)[nH]1` (stereo unspecified) [Guanosine mono-phosphate], for which the LC retention time was 8.15 min. With `CC(=O)NC(CCCNC(N)=O)C(=O)O` (stereo unspecified) [Acetylcitrulline] the figure was 5.09 min; with `CNCC(O)c1ccc(O)c(OC)c1` (stereo unspecified) [Metanephrine], 7.06 min; with `O=C(O)Cc1c[nH]c2ccc(O)cc12` [5-hydroxyindoleacetate], 3.62 min. As for `Cn1cnc2[nH]c(=O)[nH]c(=O)c21` [7-methylxanthine], the LC retention time is 2.72 min.

In the case of `O=C(O)c1c[nH]c2ccccc12` [Indole-3-carboxylic acid], the LC retention time is 1.46 min. As for `Cc1cn(C2CC(O)C(CO)O2)c(=O)[nH]c1=O` (stereo unspecified) [Thymidine], the LC retention time was 2.58 min.

Regarding `CC(=O)NC(Cc1ccccc1)C(=O)O` (stereo unspecified) [N-acetylphenylalanine], the LC retention time is 1.58 min.

Regarding `CC(CCC(=O)O)C1CCC2C3C(O)CC4CC(O)CCC4(C)C3CC(O)C12C` (stereo unspecified) [cholic acid], the LC retention time was 1.96 min. As for `CC1=NCCC(C(=O)O)N1` (stereo unspecified) [Ectoine], the LC retention time is 6.85 min.

Consider `NC(CCC(=O)O)C(=O)NC(Cc1ccc(O)cc1)C(=O)O` (stereo unspecified) [a-glutamyl-tyrosine], for which the LC retention time is 7.57 min. Under `Cc1ncc(CO)c(C=O)c1O` [Pyridoxal] stands 4.94 min; under `CC(C(=O)[O-])[N+](C)(C)C` (stereo unspecified) [Alanine betaine], 7.32 min; under `Cc1ncc(CO)c(CN)c1O` [Pyridoxamine], 13.1 min.

For `O=C(O)CNC(=O)C1CCCN1` (stereo unspecified) [Proline-glycine], the LC retention time was 7.71 min.

Consider `C[N+](C)(C)[O-]` [Trimethylamine N-oxide], for which the LC retention time is 6.67 min. For `CC[C@H](C)[C@H](N)C(=O)O` [L-Isoleucine], the LC retention time is 6.76 min.

Consider `CCCC(C(=O)[O-])[N+](C)(C)C` (stereo unspecified) [Norvaline betaine], for which the LC retention time is 6.15 min. With `Nc1ncnc2c1ncn2C1OC(CSCCC([NH3+])C(=O)[O-])C(O)C1O` (stereo unspecified) [S-adenosylhomocysteine] the figure was 10.1 min; with `Nc1ccc(C(=O)O)c(O)c1` [4-Aminosalicylic acid], 1.3 min; with `NCCS(=O)O` [Hypotaurine], 7.87 min.

Regarding `CN(C)C(=N)N=C(N)N` [Metformin], the LC retention time is 8.84 min. Consider `CC(N)C(=O)O` (stereo unspecified) [Alanine], for which the LC retention time was 8.06 min. Consider `CC(C)CC(NC(=O)C(C)N)C(=O)O` (stereo unspecified) [Alanyl-leucine], for which the LC retention time was 6.54 min. Regarding `O=C(NCC(=O)N1CCCC1C(=O)O)C1CCCN1` (stereo unspecified) [Proline-glycine-proline], the LC retention time is 7.66 min. Take `CS(=O)(=O)CCC(N)C(=O)O` [L-methionine sulfone]: the LC retention time is 7.89 min.

With `NC(=NCCCC(N)C(=O)O)NC(CC(=O)O)C(=O)O` (stereo unspecified) [Argininosuccinic acid], the LC retention time is 11.3 min.

Turning to `NCCc1cnc[nH]1` [Histamine], the LC retention time was 14.4 min.

Consider `NCCCCN=C(N)N` [Agmatine], for which the LC retention time is 15.3 min. `OCC(O)C(O)C(O)C(O)CO` (stereo unspecified) [Mannitol]: the LC retention time was 6.57 min. In the case of `CC(O)CN` (stereo unspecified) [1-amino-2-propanol], the LC retention time is 8.65 min. As to `COC(=O)C(Cc1ccccc1)NC(=O)C(N)CC(=O)O` (stereo unspecified) [Aspartame], the LC retention time was 5.89 min. On to `C[N+](C)(C)CCCCC(=O)[O-]` [5-Aminovaleric acid betaine], for which the LC retention time was 6.01 min. Consider `NCCC(=O)NC(Cc1cnc[nH]1)C(=O)O` (stereo unspecified) [Carnosine], for which the LC retention time was 13.1 min. Take `CC(C)CC(NC(=O)C(C)NC(=O)C(N)Cc1ccccc1)C(=O)O` (stereo not drawn) [Phe-Ala-Leu]: the LC retention time is 5.8 min.

For the molecule `O=C(O)CNC(=O)c1ccccc1O` [o-Hydroxyhippuric acid], the LC retention time was 1.44 min. Regarding `NC(N)=NCCCC(=O)O` [4-Guanidinobutanoic acid], the LC retention time was 7.51 min. For `Cn1cncc1CC(N)C(=O)O` (stereo unspecified) [3-methylhistidine], the LC retention time is 12 min.

As for `CC(=O)NCCCCN` [N-acetylputrescine], the LC retention time is 8.56 min. Under `NC(=O)CCC(N)C(=O)O` (stereo unspecified) [Glutamine] stands 8.52 min; under `C[N+](C)(C)C(Cc1c[nH]c2ccccc12)C(=O)[O-]` (stereo unspecified) [Tryptophan betaine], 5.65 min; under `C[n+]1cccc(C(=O)[O-])c1` [Trigonelline], 7.26 min.

Turning to `CNC(=O)c1cccnc1` [N-Methylnicotinamide], the LC retention time is 2.26 min. In the case of `Cn1c(=O)[nH]c2[nH]c(=O)[nH]c2c1=O` [1-methyluric acid], the LC retention time was 4.66 min.

`CC(CCC(=O)NCCS(=O)(=O)O)C1CCC2C3C(O)CC4CC(O)CCC4(C)C3CC(O)C12C` (stereo unspecified) [Taurocholic acid]: the LC retention time was 4.75 min. As for `C1CCNC1` [Pyrrolidine], the LC retention time is 7.71 min. Under `CCCCC(N)C(=O)O` (racemic) [DL-Norleucine] stands 6.41 min; under `NCC(O)c1ccc(O)cc1` (stereo unspecified) [Octopamine], 7.57 min.

With `CN1C(=O)CCC1c1cccnc1` (stereo unspecified) [Cotinine], the LC retention time was 5.16 min. With `CSCCC(NC=O)C(=O)O` (stereo unspecified) [N-formylmethionine], the LC retention time is 1.85 min. As to `O=c1cc[nH]c(=S)[nH]1` [Thiouracil], the LC retention time was 1.93 min.

As to `NCC(=O)NCC(=O)O` [Glycyl-glycine], the LC retention time is 9.29 min.
